This assay addresses T1, mSec18 (monomeric Sec18; Sec18His8) (Saccharomyces cerevisiae, UniProt P18759).
T1 sequence (P18759 1-758): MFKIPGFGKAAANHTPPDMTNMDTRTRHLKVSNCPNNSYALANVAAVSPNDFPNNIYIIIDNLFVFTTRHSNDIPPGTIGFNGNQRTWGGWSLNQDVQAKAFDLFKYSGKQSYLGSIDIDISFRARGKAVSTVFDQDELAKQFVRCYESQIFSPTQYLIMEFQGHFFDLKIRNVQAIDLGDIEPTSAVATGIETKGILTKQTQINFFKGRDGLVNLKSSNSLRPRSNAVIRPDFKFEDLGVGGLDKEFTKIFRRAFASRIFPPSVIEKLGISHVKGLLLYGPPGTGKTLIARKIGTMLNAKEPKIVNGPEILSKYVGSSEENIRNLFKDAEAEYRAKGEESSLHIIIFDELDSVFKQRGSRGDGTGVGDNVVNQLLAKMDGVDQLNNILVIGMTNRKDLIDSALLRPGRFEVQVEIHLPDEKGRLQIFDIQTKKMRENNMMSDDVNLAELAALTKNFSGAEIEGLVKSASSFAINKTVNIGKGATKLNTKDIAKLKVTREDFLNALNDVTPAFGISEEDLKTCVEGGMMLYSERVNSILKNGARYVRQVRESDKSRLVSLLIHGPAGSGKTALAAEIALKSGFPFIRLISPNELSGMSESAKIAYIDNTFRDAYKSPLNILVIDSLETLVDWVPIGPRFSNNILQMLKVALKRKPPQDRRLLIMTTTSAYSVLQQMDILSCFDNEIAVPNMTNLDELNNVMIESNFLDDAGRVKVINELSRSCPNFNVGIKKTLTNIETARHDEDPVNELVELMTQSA
Briefly: microscale thermophoresis. It is filed as binding. A general note: MST reads how a fluorescent partner responds to local heating, with and without ligand.

This is an account of results in article doi:10.1101/365775v1 (biorxiv, 2018).

As usually defined, the Kd is the free concentration of one partner at which half of the binding sites on the other are occupied at equilibrium, for simple one-to-one binding. A high value points to a looser complex.

In turn, `Nc1ncnc2c1ncn2[C@@H]1O[C@H](COP(=O)(O)OP(=O)(O)OP(=O)(O)O)[C@@H](O)[C@H]1O` [ATP] registered a Kd of 56 ± 16 µM.
